In PMC6385203, “Mutations in the palm domain disrupt modulation of acid-sensing ion channel 1a currents by neuropeptides” (Scientific Reports, 2019):
Peptide text beside a SMILES is read from it.

Key:
[1] = target: T1, ASIC1a N416C (Homo sapiens, UniProt P78348, N416C); experiment: Disappearance of FRRFa-induced Isust on washout, N416C; assay type: cell-based; conditions: washout after 50 μM FRRFa 45 s, n = 9
T1 construct: expressed in transfected cells; host or cells: Xenopus laevis oocytes injected with cRNA
T1 sequence (P78348 1-528 N416C): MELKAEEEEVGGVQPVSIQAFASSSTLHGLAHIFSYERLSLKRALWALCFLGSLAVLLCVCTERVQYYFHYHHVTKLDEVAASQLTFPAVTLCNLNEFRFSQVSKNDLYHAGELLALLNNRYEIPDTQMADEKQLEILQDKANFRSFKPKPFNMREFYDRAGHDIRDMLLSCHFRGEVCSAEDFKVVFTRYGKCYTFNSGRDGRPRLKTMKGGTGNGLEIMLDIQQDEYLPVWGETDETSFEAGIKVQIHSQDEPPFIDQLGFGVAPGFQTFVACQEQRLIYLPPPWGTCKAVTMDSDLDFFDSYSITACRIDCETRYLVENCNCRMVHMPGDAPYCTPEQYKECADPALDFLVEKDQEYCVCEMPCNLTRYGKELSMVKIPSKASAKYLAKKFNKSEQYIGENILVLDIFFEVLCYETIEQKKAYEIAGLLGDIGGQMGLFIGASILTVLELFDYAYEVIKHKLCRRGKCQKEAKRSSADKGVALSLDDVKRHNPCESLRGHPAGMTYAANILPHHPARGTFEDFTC
Protocol: Figure 6 Mutations of the palm change FRRFa modulation of ASIC1a. Mutants containing “-ET” in their name had been exposed during 3 min to 1 mM MTSET prior to the experiment. (a) Representative current traces of the mutant E418C in the absence and presence of 50 μM FRRFa. (b) Bar graph of the Isust/Ipeak ratio induced by pH5 of WT and mutants as indicated (n = 5–41). For (b,g–i) *p < 0.05; **p < 0.01, ***p < 0.001, ****p < 0.0001, different from WT. (c) Ratio of 50 μM FRRFa-induced increase in Isust/Ipeak (n = 5–41). (d) Ratio of 500 μM FRRFa-induced increase in Isust/Ipeak (n = 5–11). For (b–d) ^#p < 0.05; ^##p < 0.01; ^###p < 0.001; ^####p < 0.0001; ratio different from the ratio in WT. (e) FRRFa concentration-response curve of the Isust/Ipeak current ratio induced by pH5 in oocytes expressing N416C, n = 8. The WT curve is shown for comparison (n = 7–11). (f) Time course of disappearance of the FRRFa-induced sustained current in the N416C mutant and in WT. 50 μM FRRFa was applied for 45 s, and then washed out. […]
(§1) Electrophysiological measurements were performed 1–2 days after cRNA injection. Ion currents were recorded using two-electrode voltage-clamp at a holding potential of −60 mV with a Dagan TEV-200 amplifier (Minneapolis, MN). […] The amplitude of the sustained current was measured in the last two seconds of the pH5 perfusion. […]

[2] = target: T1, ASIC1a N416C; experiment: Isust/Ipeak, TEVC in Xenopus oocytes; assay type: cell-based; conditions: pH5, n = 6–7, mean ± SEM, read-out: EC50 of FRRFa (Isust/Ipeak)
Excerpt: To test the docking predictions, Cys mutants of palm and other proximal residues predicted to interact with the peptide were made. Since most of these residues are large and hydrophilic, the mutation to Cys changed the side chain properties substantially. Therefore, and because MTSET modification of many palm residues leads to currents with a large sustained component[22] that may render the measurement of FRRFa effects difficult, we exposed only the Cys mutants of hydrophobic residues (I307C and V414C) to 1 mM MTSET prior to the experiments with FRRFa. Asp212 was mutated to Gly (and not Cys), since we have previously observed that this residue is very sensitive to mutation, and that it is in most ASIC1a orthologs and even in several human ASIC1a clones a Gly. […] Due to the extremely small FRRFa-induced Isust/Ipeak ratio changes it was not possible to determine the EC50 of FRRFa on these mutants. To learn more about the nature of the Isust/Ipeak ratio increase by the N416C mutation, we measured the EC50 of FRRFa, which was 6 ± 2 μM (Fig. 6e, n = 6–7). […]
as §1

Structure (SMILES): N=C(N)NCCC[C@H](NC(=O)[C@H](CCCNC(=N)N)NC(=O)[C@@H](N)Cc1ccccc1)C(=O)N[C@@H](Cc1ccccc1)C(N)=O [FRRFa, Phe-Arg-Arg-Phe-amide] (H-FRRF-NH2)
- koff [1]: 0.027 ± 0.003 s⁻¹
- EC50 [2]: 6 ± 2 µM
